Laboratory results taken from ChEMBL document CHEMBL5230158, “Artapilosines A and B, Unusual Phenanthrene Derivatives Related to Aporphine Alkaloids from Artabotrys pilosus” (J Nat Prod, 2021).

Legend:
[1] = tested on: Human immunodeficiency virus 1; test: Antiviral activity against HIV-1 IIIB infected in human C8166 cells assessed as inhibition of reverse transcriptase mediated cytopathic effect incubated for 3 days by MTT assay; assay type: functional, organism-based; details: Human immunodeficiency virus 1, IIIB, C8166, 72 h
[2] = Cytotoxicity against human C8166 cells assessed as reduction in cell viability incubated for 3 days by MTT assay; assay type: toxicity, cell-based; details: time 3 day
[3] = Therapeutic index, ratio of CC50 for cytotoxicity against human C8166 cells to EC50 for antiviral activity against HIV-1 IIIB infected in human C8166 cells; assay type: toxicity, cell-based; details: read-out: Ratio CC50/EC50

Compound	IC50 [1]	EC50 [1]	CC50 at 72 h [2]	selectivity ratio [3]
c1ccc2c(c1)C[C@H]1NCCc3cc4c(c-2c31)OCO4 [ANONAINE]	> 40 µM			
OCCc1cc2c(c3c1ccc1ccccc13)OCO2		0.125 µM	838 µM	6690
CC(=O)N1CCc2cc3c(c4c2[C@H]1Cc1ccccc1-4)OCO3	> 40 µM			
Cc1cn([C@H]2C[C@H](N=[N+]=[N-])[C@@H](CO)O2)c(=O)[nH]c1=O [ZIDOVUDINE]		0.0239 µM	3990 µM	167000
O[C@H]1Cc2cc3c(c4c2c1cc1ccccc14)OCO3		0.0209 µM	3090 µM	148000
